Key:
MDA-MB-468 cells [1] = experiment: Migration of MDA-MB-468 cells in modified Boyden chamber; format: cell-based, human; conditions: 18 h; for migration: pure peptide 100 μM
Method: The HB2 mammary epithelial cell line, a subclone of the MTSV-1.7 cell line, originating from the laboratory of Dr. J. Taylor-Papadimitriou (11) was used. The HB2 cells were cultured in DMEM supplemented with 10% FBS, 5 U/mi penicillin, 0.5 U/ml streptomycin, 2 mM glutamine, 10 μg/ml bovine insulin and 5 μg/ml hydrocortisone. The human mammary carcinoma cell lines MCF-7 and MDA-MB-468 were cultured in DMEM supplemented with 10% FBS, 5 U/ml penicillin, 0.5 U/ml streptomycin and 2 mM glutamine. The pH-experiments were done in MEM supplemented with 10 mM Tris, 0.5% BSA, 5 U/ml penicillin, 0.5 U/ml streptomycin and 2 mM glutamine. The pH 7.4-medium was further supplemented with 4 mM sodium bicarbonate whereas the pH 6.7-medium was not. All cells were incubated at 37° C. in 95% air and 5% CO2.
Cell migration analyses were performed in a modified Boyden chamber with a polycarbonate membrane (10 μm thick with a porous diameter of 8.0 μm) separating the two chambers (Transwell®; Costar, Cambridge, Mass.). As indicated in some experiments the membranes were coated with collagen by adding collagen-I (10 μg/ml) diluted in 0.25% acetic acid to the upper chamber for 1 h at 37° C., after which it was washed three times with PBS. Each experiment was initiated by detaching the cells by Versene treatment for 10-20 min at 37° C., washed, and re-suspended as a single cell suspension in serum-free DMEM medium supplemented with 0.5% BSA. Together with the indicated agonist a 0.2 ml cell suspension (containing 25,000 MDA-MB-468 or 50,000 HB2 cells) was then added to the upper chamber of the transwell. The lower chamber was filled with 0.6 ml serum-free but BSA-containing DMEM medium supplemented with 1 ng/ml of the chemoattractant IGF-I. As a control, IGF-I was excluded in some wells in each separate experiment. The cells were allowed to migrate in the Boyden chamber for 18 h at 37° C. in a humidified atmosphere of 95% air and 5% CO2. The experiments were terminated by removing the non-migratory cells with a cotton-tipped applicator from the upper surface of the membranes. The remaining cells on the lower surface that had migrated through the membrane were stained for 20 min with 0.5% crystal violet diluted in 20% methanol/80% water. After washing the membranes the number of stained cells per membrane and well was counted in an inverted microscope. The value from each separate experiment represents the median value of three individual wells.
Peptide-induced effects on MDA-MB-468 tumour cell migration and their content of F-actin. (A) The cells were allowed to migrate for 18 h in the absence or presence of the indicated peptides (100 μM) The data in panel A are expressed as means±SEM of 8 separate experiments, each performed in triplicate. * p<0.05. (B) The cells were allowed to adhere to collagen I-coated cover glasses for 18h in the absence or presence of peptide 175 (100 μM). The cells were then stained with Alexa488-Phalloidin as described in the methods section. The illustrated micrographs are representative of 5 separate experiments.
(§1) Effects of peptide 175 modifications on its ability to induce MDA-MB-468 tumour cell adhesion and migration. (A) The cells were allowed to adhere for 60 min to collagen-I coated wells in the absence or presence of peptide 175, three stepwise N-terminal deletion variants of peptide 175 or a formylated version of the tested hexapeptide derived from peptide 175. The amounts of adhesive cells were analyzed as described in the methods and the results are given as means±SEM of 6 separate experiments. (B and C) The cells were allowed to migrate for 18 h in the absence or presence of 1 or 10 μM of peptide 175 (B) or the formylated hexapeptide (C). The data are given as means±SEM of 6 separate experiments, each performed in triplicate. * p<0.05, p<0.01.
Effects of Frz-5 receptor blocking and reduced pH on the abilities of the formylated hexapeptide and Wnt-5a to inhibit tumour cell migration. […]

MDA-MB-468 cells [2] = experiment: Adhesion of MDA-MB-468 breast cancer cells to collagen I (MTS); format: cell-based, human; conditions: pure peptide 100 μM; 60 min
Method: The adhesion assay was carried out as previously described (12). Briefly, cells were serum-depleted for 16 h, detached with Versene and allowed to adhere as single cells to collagen I for 60 (MDA-MB-468) or 90 min (HB2) at 37° C. Non-adherent cells were removed by washing with PBS. The adherent cells were incubated with a (3-(4,5-dimethylthiazol-2-yl)-5-(3-carboxymethoxyphenyl)-2-(-4-sulfophenyl)-2H-tetrazolium, inner salt (MTS) dye reduction assay (Promega, Madison, Wis.) and absorbance was measured at 490 nm using a Fluostar microplate reader from BMG LabTechnologies (GmbH, Offenberg, Germany). In each experiment a single value was calculated based on the mean of adhesion from six separate wells after the adhesion to plastic alone had been subtracted. The CM used as a control in the adhesion assays was obtained from confluent Wnt-5a overexpressing HB2 cells (for experiments with Wnt-5a antisense HB2 cells) or Wnt-5a overexpressing MCF-7 cells (for MDA-MB-468 cells) stably transfected with a vector over-expressing Wnt5a. A collected CM was always used within three days.
Peptide-induced effects on adhesion and DDR1 phosphorylation in MDA-MB-468 breast cancer cells. (A) Western blot analysis of Wnt-5a protein expression in Wnt-5a antisense and Wnt-5a over-expressing HB2 cells in comparison to MDA-MB-468 tumour cells. The blot is representative of 9 separate experiments. (B) Peptide-induced effects on MDA-MB-468 tumour cell adhesion. The cells were allowed to adhere to collagen type I-coated wells for 60 min in the absence or presence of 100 μM of the indicated peptides or CM. The amounts of adhesive cells were analyzed as described in the methods and the results are given as means±SEM of 8 separate experiments. (C) MDA-MB-468 cell adhesion to collagen I-coated wells in the absence or presence of peptide 175 or a peptide with same amino acid sequence except for a substitution of cysteine for alanine (175Ala) or CM. The amount of adherent cells was estimated as in panel A and expressed as means±SEM of 6 separate experiments, ns=not significant, ** p<0.01 and *** p<0.001. (D) Single MDA-MB-468 cells were allowed to adhere to collagen I-coated plates for 60 min in the absence or presence of the indicated peptides (100 μM), CM or recombinant Wnt-5a (0.8 µg/ml). DDR1 immunoprecipitates were Western blotted with first an anti-phosphotyrosine Ab and then after stripping with an anti-DDR1 Ab. The blots shown are representative of 6 separate experiments.
as §1

Row | Sequence | migration (MDA-MB-468 cells [1]) | adhesion to collagen I (MDA-MB-468 cells [2]) | motility (migration) (MDA-MB-468 cells [1]; 10 μM)
1 | SQLAGLSQGQKKL [peptide 171, Wnt-5a aa 55-67; negative control] | no statistically significant effect | – | –
2 | NKTSEGMDGCEL (Human) [peptide 175, Wnt-5a aa 311-322] | significantly decreased the migration | significantly increased | significantly impaired the motility
3 | ADFRKVGDALKEKYD [peptide 169, Wnt-5a aa 242-256] | significantly decreased the migration | significantly increased | –
